Laboratory results: ChEMBL document CHEMBL1208710, “NF-kappaB inducing kinase (NIK) inhibitors: identification of new scaffolds using virtual screening” (Bioorg Med Chem Lett, 2010)

Legend:
[1] = target: T1, Mitogen-activated protein kinase kinase kinase 14 (Homo sapiens, UniProt Q99558); test: Inhibition of human recombinant GST-fused NIK expressed in Sf9 cells after 60 mins by radiometric protein kinase assay
Target sequence in this assay (Q99558 whole entry, the tested form may be a part): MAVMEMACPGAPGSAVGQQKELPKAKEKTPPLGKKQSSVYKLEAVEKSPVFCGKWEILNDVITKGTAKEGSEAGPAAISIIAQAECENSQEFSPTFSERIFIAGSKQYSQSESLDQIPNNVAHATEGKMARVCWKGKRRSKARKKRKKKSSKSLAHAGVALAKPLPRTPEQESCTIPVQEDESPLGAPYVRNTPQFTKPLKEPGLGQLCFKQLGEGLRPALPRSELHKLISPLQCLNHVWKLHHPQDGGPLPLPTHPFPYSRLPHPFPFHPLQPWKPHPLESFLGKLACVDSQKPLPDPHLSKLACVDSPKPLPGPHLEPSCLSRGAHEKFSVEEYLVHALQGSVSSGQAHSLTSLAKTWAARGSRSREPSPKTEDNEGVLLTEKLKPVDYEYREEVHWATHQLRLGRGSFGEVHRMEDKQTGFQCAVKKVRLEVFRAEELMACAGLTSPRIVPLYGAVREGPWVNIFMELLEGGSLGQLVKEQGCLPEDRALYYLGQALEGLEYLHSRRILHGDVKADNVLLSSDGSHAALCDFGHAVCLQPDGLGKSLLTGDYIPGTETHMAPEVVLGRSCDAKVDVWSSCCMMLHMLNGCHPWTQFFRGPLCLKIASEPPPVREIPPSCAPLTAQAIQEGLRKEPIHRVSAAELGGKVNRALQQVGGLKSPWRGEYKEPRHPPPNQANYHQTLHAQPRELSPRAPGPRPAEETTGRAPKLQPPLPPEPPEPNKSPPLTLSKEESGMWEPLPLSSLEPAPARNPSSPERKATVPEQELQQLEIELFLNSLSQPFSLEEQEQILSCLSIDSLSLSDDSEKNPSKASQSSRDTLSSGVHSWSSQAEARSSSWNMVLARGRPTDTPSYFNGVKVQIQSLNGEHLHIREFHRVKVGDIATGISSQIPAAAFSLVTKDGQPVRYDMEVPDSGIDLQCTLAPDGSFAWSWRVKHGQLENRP

[2] = target: T1, Mitogen-activated protein kinase kinase kinase 14; test: Inhibition of human recombinant GST-fused NIK expressed in Sf9 cells at 50 uM after 60 mins by radiometric protein kinase assay
Target sequence in this assay (Q99558 whole entry, looked up, the tested form may be a part): as the sequence (Q99558 whole entry, the tested form may be a part) above

Row | IC50 [1] [µM] | inhibition [2] [%] | Structure (SMILES)
1 | > 100 |  | O=C1Cc2ccccc2CN1
2 | > 100 |  | O=c1[nH]c(=O)c2c(Cl)cc(Cl)cc2[nH]1
3 |  | < 15 | O=C(Cn1c(=O)[nH]c(=O)c2ccccc21)NCc1ccccn1
4 |  | < 15 | CN(C)c1ccc(CNC(=O)Cn2c(=O)[nH]c(=O)c3ccccc32)cc1
5 |  | < 15 | CCOC(=O)N1CCC(NC(=O)Cn2c(=O)[nH]c(=O)c3ccccc32)CC1
6 | 51 | 60 | O=C1Cc2ccccc2C(=O)N1
7 | > 50 | 44 | CCO/C=C1/C(=O)NC(=O)c2ccccc21
8 | > 100 | 25 | O=C1NC(=O)c2ccccc2/C1=C\c1cccs1
9 | 90 | 53 | O=C1CC2CC(=O)NC(=O)C2C(=O)N1 (stereo unspecified)
10 |  | < 15 | CC(NC(=O)Cn1c(=O)[nH]c(=O)c2ccccc21)c1cccs1 (stereo unspecified)

Row | Structure (SMILES) | IC50 [1] [µM] | inhibition [2] [%]
11 | CC1=CC(=O)c2c(O)cccc2C1=O [PLUMBAGIN] | > 100 | 60
